19 molecules from patent US7674823B2, “DNA-PK inhibitors” (Cancer Research Technology Limited, priority 2001, dated 2010) can be followed below.

The target of series [1] is T1, Mammalian DNA-PK, isolated from Hela cell nuclear extract (Homo sapiens, UniProt P78527).
T1 construct: Mammalian DNA-PK, isolated from Hela cell nuclear extract; endogenous in cells; host or cells: HeLa cell nuclear extract (purified per Gell and Jackson 1999)
The experiment in a line: DNA-PK inhibition assay (33P-ATP, filter binding). Format: biochemical. The protocol: In order to assess the inhibitory action of the compounds against DNA-PK in vitro, the following assay was used to determine IC50 values.
The total assay volume per well was 40 μl.
After 10 minutes of incubation at 30° C. the reactions were initiated by the addition of Na-ATP (50 μM final), ^33p-γATP and a 30mer double stranded DNA oligonucleotide (10 ng/μl) in a volume of 10 μl. Designated positive and negative reaction wells were done in combination with compound wells (unknowns) in order to calculate % enzyme activities. The plates were then shaken for 2 minutes and incubated at 30° C. for 45 minutes.
Following the incubation, the reactions were quenched by the addition of 50 μl 30% acetic acid to each well. The plates were then shaken for 5 minutes and the contents of each plate (80 μl from each well) transferred over to a 96 well Polyfiltronics filtration plate, containing P81-phosphocellulose membrane (TRADE MARK)(Whatman, UK). The solutions were vacuum pumped through the membrane and each well membrane washed four times using 300 μl of 15% acetic acid. The well membranes were then air dried and 20 μl of scintillant was added to each well.
The plates were transferred to a TopCount NXT (TRADE MARK) (Packard, UK) for scintillation counting. Values recorded are counts per minute (cpm) following a 1 minute counting time for each well.
The enzyme activity for each compound is then calculated using the following equation: […]
These are determined over a range of different concentrations, normally from 10 μM down to 0.01 μM. Such IC50 values are used as comparative values to identify increased compound potencies.

Series [2] concerns the target T2, ATM protein (Homo sapiens, UniProt Q13315).
T2 construct: ATM protein was immunoprecipitated from HeLa cell nuclear extract; endogenous in cells; host or cells: HeLa cell nuclear extract (immunoprecipitate)
The experiment in a line: ATM inhibition assay (immunoprecipitated ATM, GSTp53N66 substrate). In kind it is biochemical. The protocol:
(§1) In order to assess the inhibitory action of the compounds against ATM in vitro, the following assay was used to determine IC50 values.
(§2) ATM protein was immunoprecipitated from HeLa cell nuclear extract using rabbit polyclonal antisera raised to the C-terminal ˜500 amino-acid residues of the human ATM protein. The immunoprecipitation was performed according to the methodology described by Banin, S. et al. (1998) Enhanced phosphorylation of p53 by ATM in response to DNA damage. Science 281:1674-1677. 10 μl of immunoprecipitated ATM in Buffer C (50 mM Hepes, pH 7.4, 6 mM MgCl2, 150 mM NaCl, 0.1 mM sodium orthovanadate, 4 mM MnCl2, 0.1 mM dithiothreitol, 10% glycerol) was added to 32.5 μl of buffer C containing 1 μg of the ATM substrate GSTp53N66 in a V-bottomed 96 well polypropylene plate. The GSTp53N66 substrate is the amino terminal 66 amino acid residues of human wild type p53 fused to glutathione S-transferase. ATM phosphorylates p53 on the residue serine 15 (Banin, S. et al. (1998) Enhanced phosphorylation of p53 by ATM in response to DNA damage. Science 281:1674-1677). Varying concentrations of inhibitor were then added. […] After 10 minutes of incubation at 37° C., the reactions were initiated by the addition of 5 μl of 50 μM Na-ATP. After 1 h with shaking at 37° C., 150 μl of phosphate buffered saline (PBS) was added to the reaction and the plate centrifuged at 1500 rpm for 10 minutes. 5 μl of the reaction was then transferred to a 96 well opaque white plate containing 45 μl of PBS to allow the GSTp53N66 substrate to bind to the plate wells. The plate was covered and incubated at room temperature for 1 h with shaking before discarding the contents. The plate wells were washed twice by the addition of PBS prior to the addition of 3% (w/v) bovine serum albumin (BSA) in PBS. The plate was incubated at room temperature for 1 h with shaking before discarding the contents and washing twice with PBS. To the wells, 50 μl of a 1:10,000 dilution of primary phosphoserine-15 antibody (Cell Signaling Technology, #9284L) in 3% BSA/PBS was added to detect the phosphorylation event on the serine 15 residue of p53 elicited by the ATM kinase. After 1 h of incubation at room temperature with shaking, the wells were washed four times with PBS prior to the addition of an anti-rabbit HRP conjugated secondary antibody (Pierce, 31462) with shaking for 1 h at room temperature. The wells were then washed four times with PBS before the addition of chemiluminescence reagent (NEN Renaissance, NEL105). The plate was then shaken briefly, covered with a transparent plate seal and transferred to a TopCount NXT for chemiluminescent counting. Counts per second, following a one second counting time, were recorded for each reaction. The inhibition of ATM activity by compounds was calculated as described above for the DNA-PK assay.
(§3) The selectivity was determined by the following equation: […]

Series [3] has as its system ATM protein. The series is described as above. Format: biochemical, human. The following applies: selectivity ratio from the IC50s for ATM and DNA-PK. Here is the method: as §1, §2, §3
In series [4] the target is T3, PI 3-kinase (p110α/p85α) (UniProt P32871).
T3 construct: other: GST-fused p110α/p85α
The experiment in a line: PI 3-kinase inhibition assay. In kind it is biochemical. The following applies: GST-fused p110α/p85α.
From the text: (§4) In order to assess the inhibitory action of the compounds against PI 3-kinase in vitro, the following assay was used to determine IC50 values.
(§5) Baculoviral recombinant GST-fused PI 3-kinase (p110α/p85α) was purified from Sf9 insect cells using GSH-sepharose affinity chromatography as described (Wymann, M. T et al., (1996) Wortmannin inactivates phosphoinositide 3-kinase by covalent modification of Lys-802, a residue involved in the phosphate transfer reaction. Mol. Cell Biol. 16:1722-1733). PI 3-kinase (1 μl) was diluted in reaction buffer (89 μl of 50 mM Hepes pH 7.5, 150 mM NaCl, 0.1 mM Sodium Orthovanadate, containing 20 μg of phosphatidylinositol) and varying concentrations of inhibitor compound added. […] Reactions were incubated for a further 20 minutes at 37° C., before quenching with the addition of 400 μl of chloroform/methanol (1:1). Reactions were acidified by the addition of 200 μl of 1M HCl, before separation of the organic and aqueous phases by centrifugation at 10,000 g for 30 seconds. The organic phase was transferred to a fresh tube and washed twice with 150 μl of 1M hydrochloric acid/methanol (1:1), discarding the aqueous phase. The washed reaction product was then placed in a white 96-well plate with 100 μl of scintillation fluid and transferred to a TopCount NXT for scintillation counting. Counts per minute, following a one minute counting time, were recorded for each reaction. The inhibition of PI 3-kinase activity by compounds was calculated as described above for the DNA-PK assay.
as §3

Series [5] relates to PI 3-kinase (p110α/p85α). The experiment in a line: PI 3-kinase inhibition assay. In kind it is biochemical. The following applies: selectivity ratio from the IC50s for PI 3-kinase and DNA-PK.
From the text: as §4, §5, §3

Setting [6] is: IC50 of less than about 1 μM and/or % inhibition of more than about 50 at 1 μM, read-out: DNA-PK inhibition IC50 (particular efficacy).
Setting [7] is: concentration at which 50% of the enzyme activity is inhibited, read-out: DNA-PK Inhibition IC50.

Read-outs that look alike come from different tables or passages of the source. Where only a bound is given, the exact number is not on record here.

What is called IC50 is the concentration at which inhibition is half-maximal. In general, melting point refers to the temperature of the solid-liquid transition.

T2 sequence (Q13315 whole entry): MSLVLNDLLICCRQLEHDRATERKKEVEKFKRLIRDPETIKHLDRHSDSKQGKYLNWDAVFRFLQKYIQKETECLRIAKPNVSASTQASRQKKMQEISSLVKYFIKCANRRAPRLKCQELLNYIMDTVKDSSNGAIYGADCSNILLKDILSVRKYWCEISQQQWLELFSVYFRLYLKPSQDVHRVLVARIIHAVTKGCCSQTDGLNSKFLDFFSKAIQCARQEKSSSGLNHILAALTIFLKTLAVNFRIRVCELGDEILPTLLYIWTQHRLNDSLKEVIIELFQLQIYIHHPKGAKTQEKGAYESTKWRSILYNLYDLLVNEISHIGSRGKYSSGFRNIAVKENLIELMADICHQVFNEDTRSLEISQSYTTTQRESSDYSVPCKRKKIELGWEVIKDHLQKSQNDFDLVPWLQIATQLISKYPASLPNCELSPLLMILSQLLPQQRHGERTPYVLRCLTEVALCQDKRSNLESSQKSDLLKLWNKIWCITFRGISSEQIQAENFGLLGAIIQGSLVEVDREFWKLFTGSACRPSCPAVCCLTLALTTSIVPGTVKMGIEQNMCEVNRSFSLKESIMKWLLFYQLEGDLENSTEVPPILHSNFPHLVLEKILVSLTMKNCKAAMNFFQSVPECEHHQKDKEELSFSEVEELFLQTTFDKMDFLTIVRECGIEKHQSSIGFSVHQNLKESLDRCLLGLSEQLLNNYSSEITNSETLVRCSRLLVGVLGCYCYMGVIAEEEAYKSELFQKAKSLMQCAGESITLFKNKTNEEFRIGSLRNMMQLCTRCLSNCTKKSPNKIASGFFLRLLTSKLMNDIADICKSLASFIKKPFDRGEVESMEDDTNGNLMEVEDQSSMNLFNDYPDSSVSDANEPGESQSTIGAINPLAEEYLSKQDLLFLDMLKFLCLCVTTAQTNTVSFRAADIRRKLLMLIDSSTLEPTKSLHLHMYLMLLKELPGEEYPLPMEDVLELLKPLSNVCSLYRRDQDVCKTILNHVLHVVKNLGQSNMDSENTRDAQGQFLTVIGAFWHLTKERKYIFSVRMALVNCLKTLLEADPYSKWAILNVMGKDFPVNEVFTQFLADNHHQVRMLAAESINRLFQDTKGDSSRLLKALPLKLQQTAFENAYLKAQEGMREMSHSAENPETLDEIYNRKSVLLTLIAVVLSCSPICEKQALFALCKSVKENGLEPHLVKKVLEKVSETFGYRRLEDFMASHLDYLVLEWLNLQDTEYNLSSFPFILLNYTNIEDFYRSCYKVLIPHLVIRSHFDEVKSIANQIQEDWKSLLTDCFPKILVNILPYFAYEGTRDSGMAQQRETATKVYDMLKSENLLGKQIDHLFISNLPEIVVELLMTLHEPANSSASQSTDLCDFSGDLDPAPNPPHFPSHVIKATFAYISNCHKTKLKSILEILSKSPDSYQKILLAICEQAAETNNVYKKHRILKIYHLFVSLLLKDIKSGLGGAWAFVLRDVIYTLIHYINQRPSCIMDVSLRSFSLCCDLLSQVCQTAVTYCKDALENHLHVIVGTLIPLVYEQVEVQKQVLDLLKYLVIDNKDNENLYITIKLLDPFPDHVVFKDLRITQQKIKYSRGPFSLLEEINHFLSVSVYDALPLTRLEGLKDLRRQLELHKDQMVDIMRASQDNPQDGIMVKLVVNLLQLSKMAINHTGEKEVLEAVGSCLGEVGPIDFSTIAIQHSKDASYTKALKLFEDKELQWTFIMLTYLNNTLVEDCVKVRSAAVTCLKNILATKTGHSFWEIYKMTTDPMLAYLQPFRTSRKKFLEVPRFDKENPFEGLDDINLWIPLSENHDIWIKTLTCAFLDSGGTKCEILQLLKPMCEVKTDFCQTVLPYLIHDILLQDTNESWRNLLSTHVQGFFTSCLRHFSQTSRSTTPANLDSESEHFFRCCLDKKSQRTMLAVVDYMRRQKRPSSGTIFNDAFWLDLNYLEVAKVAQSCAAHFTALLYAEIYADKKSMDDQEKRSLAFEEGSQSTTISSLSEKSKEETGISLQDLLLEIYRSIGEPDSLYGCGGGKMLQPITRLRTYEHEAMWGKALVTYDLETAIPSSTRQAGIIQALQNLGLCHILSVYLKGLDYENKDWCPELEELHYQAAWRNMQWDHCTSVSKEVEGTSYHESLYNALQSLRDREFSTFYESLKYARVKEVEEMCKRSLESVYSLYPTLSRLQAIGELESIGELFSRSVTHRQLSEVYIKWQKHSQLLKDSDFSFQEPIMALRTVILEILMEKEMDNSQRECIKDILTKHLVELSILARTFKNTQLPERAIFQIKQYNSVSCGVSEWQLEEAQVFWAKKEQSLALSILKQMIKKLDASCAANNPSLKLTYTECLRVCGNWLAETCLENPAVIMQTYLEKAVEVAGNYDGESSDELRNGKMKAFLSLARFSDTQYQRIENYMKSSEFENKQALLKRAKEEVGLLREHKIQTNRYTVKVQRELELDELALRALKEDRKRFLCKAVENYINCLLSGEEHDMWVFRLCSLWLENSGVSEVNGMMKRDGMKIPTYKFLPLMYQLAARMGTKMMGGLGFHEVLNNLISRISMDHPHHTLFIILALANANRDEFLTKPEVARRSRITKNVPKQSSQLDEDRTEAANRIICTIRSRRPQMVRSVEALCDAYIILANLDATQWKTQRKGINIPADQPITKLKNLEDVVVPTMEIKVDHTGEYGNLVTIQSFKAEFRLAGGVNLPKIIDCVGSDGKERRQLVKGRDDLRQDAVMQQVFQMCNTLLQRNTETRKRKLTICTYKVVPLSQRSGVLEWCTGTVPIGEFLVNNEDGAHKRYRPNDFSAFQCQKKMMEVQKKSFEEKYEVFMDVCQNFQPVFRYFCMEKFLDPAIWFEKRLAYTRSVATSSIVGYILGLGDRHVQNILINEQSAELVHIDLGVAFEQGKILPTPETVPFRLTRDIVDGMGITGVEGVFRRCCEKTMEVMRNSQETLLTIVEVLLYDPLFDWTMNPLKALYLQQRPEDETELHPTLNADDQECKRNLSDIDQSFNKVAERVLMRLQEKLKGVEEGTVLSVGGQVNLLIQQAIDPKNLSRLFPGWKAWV

Regarding `O=c1cc(N2CCSCC2)nc2c3ccccc3ccn12` [Compound 6, 2-Thiomorpholin-4-yl-pyrimido[2,1-a]isoquinolin-4-one], the melting point was 240 to 242 °C. Moreover, the IC50 in series [1] (setting [6]) was < 1 µM. The IC50 in series [1] (setting [7]) turned out to be 5 µM.

`C[C@@H]1CN(c2cc(=O)n3ccc4ccccc4c3n2)C[C@H](C)O1` [Compound 13, 2-((2S,6R)-2,6-Dimethyl-morpholin-4-yl)-pyrimido[2,1-a]isoquinolin-4-one] yielded a melting point of 208 to 209 °C. The IC50 in series [1] (setting [7]) stood at 8 µM.

As for `O=c1cc(-c2ccc(Cl)cc2)oc(N2CCOCC2)c1` [Compound 284, 2-(4-chlorophenyl)-6-(morpholin-4-yl)-pyran-4-one], in series [2], the IC50 was > 100 µM. The “Δ(DNA-PK/ATM)” value in series [3] is >286.

In the case of `O=c1cc(-c2ccccc2)oc(N2CCOCC2)c1` [Compound 285, 2-(morpholin-4-yl)-6-phenyl-pyran-4-one], the melting point lay in the range of 148 to 150 °C. Half-maximal inhibition in series [4] (IC50) required 30 µM. Moreover, the “Δ(DNA-PK/PI 3-K)” value in series [5] stood at 38. Moreover, the IC50 in series [2] is > 50 µM. Moreover, the “Δ(DNA-PK/ATM)” value in series [3] is given as >63.

For the molecule `COc1ccccc1-c1cc(=O)cc(N2CCOCC2)o1` [Compound 286, 2-(2-methoxyphenyl)-6-(morpholin-4-yl)-pyran-4-one], the melting point is 125 to 127 °C. Also, the midpoint of inhibition in series [2], the IC50, lay at 24 µM. Moreover, the “Δ(DNA-PK/ATM)” value in series [3] is 80.

`COc1cccc(-c2cc(=O)cc(N3CCOCC3)o2)c1` [Compound 287, 2-(3-methoxyphenyl)-6-(morpholin-4-yl)-pyran-4-one]: the melting point was 115 to 117 °C. Moreover, in series [2], the IC50 was > 50 µM. Also, the “Δ(DNA-PK/ATM)” value in series [3] is >125.

`COc1ccc(-c2cc(=O)cc(N3CCOCC3)o2)cc1` [Compound 288, 2-(4-Methoxyphenyl)-6-(morpholin-4-yl)-pyran-4-one]: the IC50 in series [4] was 15 µM; in series [2] it was > 100 µM. The “Δ(DNA-PK/PI 3-K)” value in series [5] came out at 43. For the same molecule, the “Δ(DNA-PK/ATM)” value in series [3] is on record as >286.

In turn, `CC(C)(C)c1ccc(-c2cc(=O)cc(N3CCOCC3)o2)cc1` [Compound 289, 2-(4-tert-butyl-phenyl)-6-(morpholin-4-yl)-pyran-4-one] gave a melting point of 156 °C. Inhibition in series [4] was half-maximal at 37 µM (IC50). In addition, the “Δ(DNA-PK/PI 3-K)” value in series [5] is reported as 82. Moreover, the IC50 in series [2] was > 50 µM. The “Δ(DNA-PK/ATM)” value in series [3] was >111.

For the molecule `O=c1cc(-c2cccc(F)c2)oc(N2CCOCC2)c1` [Compound 291, 6-(3-fluorophenyl)-2-(morpholin-4-yl)pyran-4-one], the melting point was in the range of 169 to 170 °C. In addition, the IC50 in series [2] was > 50 µM. Also, in series [3], the “Δ(DNA-PK/ATM)” value is given as >167.

For `O=c1cc(N2CCOCC2)oc2c(-c3ccccc3)cccc12` [Compound 294, 8-Phenyl-2-(morpholin-4-yl)-chromen-4-one], the “Δ(DNA-PK/PI 3-K)” value in series [5] was 1. Also, in series [2], the IC50 is > 100 µM. Further, in series [3], the “Δ(DNA-PK/ATM)” value was > 67.

As for `O=c1cc(N2CCOCC2)oc2cc(O)ccc12` [Compound 307, 7-hydroxy-2-(morpholin-4-yl)-chromen-4-one], the figures for the IC50 in series [1] (setting [7]) and in series [2] were 0.9 µM and > 100 µM, respectively. The “Δ(DNA-PK/ATM)” value in series [3] is given as >111.

Consider `O=c1cc(N2CCOCC2)oc2ccc3ccccc3c12` [Compound 310, 2-morpholin-4-yl-benzo[f]chromen-4-one], for which the IC50 was 11 µM in series [4] and > 100 µM in series [2]. In addition, the “Δ(DNA-PK/PI 3-K)” value in series [5] came out at 110. In addition, the “Δ(DNA-PK/ATM)” value in series [3] is listed as >1000.

Regarding `O=c1cc(N2CCCC(CO)C2)oc2c1ccc1ccccc12` (stereo not shown) [Compound 313, 2-(3-Hydroxymethyl-piperidin-1-yl)-benzo[h]chromen-4-one], the melting point was 209 to 210 °C.

Take `CN1CCN(c2cc(=O)c3ccc4ccccc4c3o2)CC1` [Compound 314, 2-(4-Methyl-piperazin-1-yl)-benzo[h]chromen-4-one]: the melting point was 184 to 185 °C.

`O=c1cc(NCC2CCCO2)oc2c1ccc1ccccc12` (stereo not shown) [Compound 316, 2-[(Tetrahydrofuran-2-ylmethyl)-amino]-benzo[h]chromen-4-one] came in with a melting point of 139 to 140 °C.

`O=c1cc(N2CCOCC2)oc2cc(OCc3ccccc3Cl)ccc12` [Compound 417, 7-(2-Chlorobenzyloxy)-2-morpholin-4-yl-chromen-4-one] yielded a melting point of 167 to 168 °C.

`O=c1cc(N2CCOCC2)oc2cc(OCc3ccc4ccccc4c3)ccc12` [Compound 418, 7-(Naphthalen-2-ylmethoxy)-2-morpholin-4-yl-chromen-4-one] yielded a melting point of 263 to 264 °C. The IC50 in series [1] (setting [6]) was < 1 µM. Also, the IC50 in series [1] (setting [7]) worked out at 0.45 µM. For the same molecule, the IC50 in series [2] was > 100 µM. In series [3], the “Δ(DNA-PK/ATM)” value is recorded as >222.

Molecule `O=c1cc(N2CCOCC2)oc2cc(OCC3CCCCC3)ccc12` [Compound 419, 7-Cyclohexylmethoxy-2-(morpholin-4-yl)-chromen-4-one] had a melting point of 187 to 188 °C. Further, in series [1] (setting [7]), the IC50 came to 1 µM.

`O=C(Oc1ccc2c(=O)cc(N3CCOCC3)oc2c1)c1ccccc1` [Compound 423, 7-Benzoyloxy-2-(morpholin-4-yl)-chromen-4-one]: the melting point fell in the range of 204 to 206 °C. Besides, the IC50 in series [1] (setting [7]) was found to be 3 µM. The IC50 in series [2] was > 100 µM. Besides, the “Δ(DNA-PK/ATM)” value in series [3] is listed as >33.
